Assay results from ChEMBL document CHEMBL4017504, “Blockade of Asparagine Endopeptidase Inhibits Cancer Metastasis” (J Med Chem, 2017).
Active and inactive are the calls of the source. No cut-off for these calls is given here.

What was measured:
[1] = target: T1, Legumain (Homo sapiens) (UniProt Q99538); test: Inhibition of AEP (unknown origin) assessed as residual activity at 1 uM using Cbz-Ala-Ala-Asn-AMC as substrate after 15 mins by fluorescence assay relative to control
T1 sequence (whole entry): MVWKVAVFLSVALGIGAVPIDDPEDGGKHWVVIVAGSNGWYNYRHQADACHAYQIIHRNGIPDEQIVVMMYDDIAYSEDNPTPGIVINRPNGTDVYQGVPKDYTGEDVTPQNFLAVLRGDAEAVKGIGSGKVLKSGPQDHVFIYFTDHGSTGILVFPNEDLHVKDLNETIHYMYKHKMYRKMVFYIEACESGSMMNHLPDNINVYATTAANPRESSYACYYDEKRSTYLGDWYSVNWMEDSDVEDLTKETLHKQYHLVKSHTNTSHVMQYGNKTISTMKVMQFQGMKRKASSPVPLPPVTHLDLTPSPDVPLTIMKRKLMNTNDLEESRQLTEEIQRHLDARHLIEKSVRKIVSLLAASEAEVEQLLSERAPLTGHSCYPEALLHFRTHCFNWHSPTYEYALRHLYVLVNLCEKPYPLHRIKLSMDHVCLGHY

[2] = Inhibition of cathepsin-L (unknown origin); set-up: species or system Homo sapiens
[3] = target: Cathepsin S (Homo sapiens, UniProt P25774); test: Inhibition of cathepsin-S (unknown origin)
[4] = target: T2, Caspase-3 (Homo sapiens, UniProt P42574); test: Inhibition of caspase-3 (unknown origin)
T2 sequence (P42574 whole entry): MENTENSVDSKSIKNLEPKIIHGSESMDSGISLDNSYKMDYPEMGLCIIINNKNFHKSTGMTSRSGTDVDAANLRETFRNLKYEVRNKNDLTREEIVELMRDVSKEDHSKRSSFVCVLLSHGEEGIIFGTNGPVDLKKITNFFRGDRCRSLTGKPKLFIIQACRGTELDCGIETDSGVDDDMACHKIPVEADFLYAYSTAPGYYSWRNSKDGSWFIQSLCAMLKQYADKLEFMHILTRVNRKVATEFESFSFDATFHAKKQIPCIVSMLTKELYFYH

[5] = target: Caspase-8 (Homo sapiens, UniProt Q14790); test: Inhibition of caspase-8 (unknown origin)
[6] = target: T3, Legumain (Homo sapiens, UniProt Q99538); test: Inhibition of AEP (unknown origin) using Cbz-Ala-Ala-Asn-AMC as substrate after 15 mins by fluorescence assay
T3 sequence (Q99538 whole entry): T1 sequence (whole entry)

[7] = species: Homo sapiens; test: Selectivity ratio of IC50 for cathepsin-L (unknown origin) to IC50 for AEP (unknown origin)
[8] = target: T4, Legumain (Mus musculus) (UniProt O89017); test: Inhibition of AEP in mouse kidney by HTS assay
T4 sequence (whole entry): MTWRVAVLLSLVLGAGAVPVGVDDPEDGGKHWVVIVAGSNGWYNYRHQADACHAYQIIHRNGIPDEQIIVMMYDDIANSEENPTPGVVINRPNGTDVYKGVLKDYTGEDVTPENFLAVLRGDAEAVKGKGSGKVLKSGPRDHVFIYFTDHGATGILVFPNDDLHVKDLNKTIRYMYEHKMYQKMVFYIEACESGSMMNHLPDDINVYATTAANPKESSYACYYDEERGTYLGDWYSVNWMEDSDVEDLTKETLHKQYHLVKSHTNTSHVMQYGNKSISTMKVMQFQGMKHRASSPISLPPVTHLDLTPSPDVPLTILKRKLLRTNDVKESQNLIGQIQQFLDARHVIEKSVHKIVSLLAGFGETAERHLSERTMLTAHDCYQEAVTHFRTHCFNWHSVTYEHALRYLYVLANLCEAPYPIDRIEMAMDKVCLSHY

[9] = target: T3, Legumain; test: Competitive inhibition of AEP (unknown origin) using varying levels of Z-AAN-AMC substrate after 10 mins by Lineweaver-Burk plot analysis
[10] = Apparent permeability across apical to basolateral side in human Caco2 cells after 2 hrs by LC-MS/MS method; type: ADME, cell-based; settings: caco-2, 2 h
[11] = Apparent permeability across basolateral to apical side in human Caco2 cells after 2 hrs by LC-MS/MS method; type: ADME, cell-based; settings: caco-2, 2 h
[12] = test system: MDA-MB-231; test: Cytotoxicity against human MDA-MB-231 cells assessed as reduction in cell viability up to 2 uM by MTT assay; type: cell-based
[13] = test system: MDA-MB-435; test: Cytotoxicity against human MDA-MB-435 cells assessed as reduction in cell viability up to 2 uM by MTT assay; type: cell-based
[14] = test system: MDA-MB-231; test: Anti-invasive activity against human MDA-MB-231 cells by crystal violet staining based microscopic method; type: functional, cell-based
[15] = test system: MDA-MB-435; test: Anti-invasive activity against human MDA-MB-435 cells by crystal violet staining based microscopic method; type: functional, cell-based
[16] = test system: MDA-MB-231; test: Anti-invasive activity against human MDA-MB-231 cells at 2 uM by crystal violet staining based microscopic method relative to control; type: functional
[17] = test system: MDA-MB-435; test: Anti-invasive activity against human MDA-MB-435 cells at 2 uM by crystal violet staining based microscopic method relative to control; type: functional
[18] = test system: MDA-MB-231; test: Anti-migratory activity against human MDA-MB-231 cells up to 2 uM by transwell assay relative to control; type: functional
[19] = test system: MDA-MB-435; test: Anti-migratory activity against human MDA-MB-435 cells up to 2 uM by transwell assay relative to control; type: functional
[20] = test system: MDA-MB-435; test: Anti-invasive activity against human MDA-MB-435 cells harboring AEP siRNA up to 2 uM by crystal violet staining based microscopic method; type: functional, cell-based
[21] = test system: MDA-MB-231; test: Anti-invasive activity against human MDA-MB-231 cells harboring AEP siRNA up to 2 uM by crystal violet staining based microscopic method; type: functional, cell-based
[22] = test system: MDA-MB-231; test: Antitumor activity against human MDA-MB-231 cells xenografted in nude mouse assessed as metastatic nodules on lungs at 3 mg/kg, po via gavage for 42 consecutive days by hematoxylin and eosin staining based microscopic method relative to control; type: functional
[23] = test system: MDA-MB-231; test: Antitumor activity against human MDA-MB-231 cells xenografted in nude mouse assessed as metastatic nodules on lungs at 10 mg/kg, po via gavage for 42 consecutive days by hematoxylin and eosin staining based microscopic method relative to control; type: functional
[24] = test system: MDA-MB-231; test: Antitumor activity against human MDA-MB-231 cells xenografted in nude mouse assessed as reduction in mammary tumor weight at 3 to 10 mg/kg, po via gavage for 42 consecutive days; type: functional, organism-based
[25] = test system: Mus musculus; test: Toxicity in nude mouse xenografted with human MDA-MB-231 cells assessed as abnormality in kidney at 3 to 10 mg/kg, po via gavage for 42 consecutive days by hematoxylin and eosin staining based microscopic method; type: organism-based; settings: in vivo
[26] = test system: Mus musculus; test: Toxicity in nude mouse xenografted with human MDA-MB-231 cells assessed as body weight loss at 3 to 10 mg/kg, po via gavage for 42 consecutive days; type: organism-based; settings: in vivo
[27] = test system: Mus musculus; test: Toxicity in nude mouse xenografted with human MDA-MB-231 cells assessed as abnormality in bone marrow at 3 to 10 mg/kg, po via gavage for 42 consecutive days by hematoxylin and eosin staining based microscopic method; type: organism-based; settings: in vivo
[28] = test system: Mus musculus; test: Toxicity in nude mouse xenografted with human MDA-MB-231 cells assessed as abnormality in liver at 3 to 10 mg/kg, po via gavage for 42 consecutive days by hematoxylin and eosin staining based microscopic method; type: organism-based; settings: in vivo
[29] = test system: Mus musculus; test: Toxicity in nude mouse xenografted with human MDA-MB-231 cells assessed as effect on blood count at 3 to 10 mg/kg, po via gavage for 42 consecutive days by hematoxylin and eosin staining based microscopic method; type: organism-based; settings: in vivo
[30] = test system: Mus musculus; test: Toxicity in nude mouse xenografted with human MDA-MB-231 cells assessed as increase in spleen size at 3 to 10 mg/kg, po via gavage for 42 consecutive days; type: organism-based; settings: in vivo
[31] = test system: MDA-MB-231; test: Cytotoxicity against human MDA-MB-231 cells assessed as reduction in cell viability up to 10 uM by MTT assay; type: cell-based
[32] = test system: MDA-MB-231; test: Inhibition of MMP2 cleavage in human MDA-MB-231 cells harboring AEP siRNA up to 10 uM by gelatin zymography assay; type: functional, cell-based
[33] = test system: Mus musculus; test: Reduction in ratio of cleaved MMP2 to full-length MMP2 in mammary tumor of nude mouse xenografted with human MDA-MB-231 cells at 3 to 10 mg/kg, po via gavage for 42 consecutive days by gelatin zymography assay; type: functional, organism-based

Sequence of Caspase-8 (Q14790 217-374 limits assumed): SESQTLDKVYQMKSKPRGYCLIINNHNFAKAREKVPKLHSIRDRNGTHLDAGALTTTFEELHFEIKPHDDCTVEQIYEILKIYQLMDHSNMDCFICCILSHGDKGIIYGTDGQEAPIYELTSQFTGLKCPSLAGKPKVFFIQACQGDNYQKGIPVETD
Sequence of Caspase-8 (Q14790 385-479 limits assumed): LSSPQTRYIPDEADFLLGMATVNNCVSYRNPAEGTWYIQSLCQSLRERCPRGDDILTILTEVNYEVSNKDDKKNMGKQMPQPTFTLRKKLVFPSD
Sequence of Cathepsin S (P25774 whole entry): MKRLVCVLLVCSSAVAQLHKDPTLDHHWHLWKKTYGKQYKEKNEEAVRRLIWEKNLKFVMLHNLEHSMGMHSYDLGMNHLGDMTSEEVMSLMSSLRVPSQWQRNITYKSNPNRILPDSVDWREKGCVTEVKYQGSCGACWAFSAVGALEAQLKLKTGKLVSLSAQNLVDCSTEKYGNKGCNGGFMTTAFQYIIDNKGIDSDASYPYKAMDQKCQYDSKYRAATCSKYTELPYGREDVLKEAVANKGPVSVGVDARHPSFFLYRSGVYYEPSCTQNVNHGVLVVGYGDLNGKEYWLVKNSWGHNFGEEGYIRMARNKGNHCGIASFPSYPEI

SMILES: Cn1c(=O)c2c(nc(S(C)(=O)=O)n2C)n(C)c1=O
- Activity [1]: 98.3%

SMILES: Cn1c(=O)c2c(nc(S(=O)(=O)c3ccccc3)n2C)n(C)c1=O
- Activity [1]: 98.9%

SMILES: Cn1c(=O)[nH]c(=O)c2c1nc(S)n2C[C@H](O)COc1ccccc1
- Activity [1]: 34.6%

SMILES: Cc1ccc(Cn2c(S)nc3c2c(=O)[nH]c(=O)n3C)cc1
- Activity [1]: 12.3%

SMILES: COCCn1c(S)nc2c1c(=O)[nH]c(=O)n2C
- Activity [1]: 13.8%

SMILES: C=CCn1c(S)nc2c1c(=O)n(C)c(=O)n2C
- Activity [1]: 18.1%

SMILES: CC[C@H](C)n1c(S)nc2c1c(=O)[nH]c(=O)n2C
- Activity [1]: 14.1%

SMILES: CC(C)Cn1c(S)nc2c1c(=O)[nH]c(=O)n2C
- Activity [1]: 15.7%

SMILES: CCn1c(S)nc2c1c(=O)n(C)c(=O)n2C
- Activity [1]: 15.9%

SMILES: Cn1c(S)nc2c1c(=O)n(Cc1ccccc1)c(=O)n2C
- IC50 [2]: > 200 µM
- IC50 [3]: > 200 µM
- IC50 [4]: > 200 µM
- IC50 [5]: > 200 µM

SMILES: CCCn1c(S)nc2c1c(=O)[nH]c(=O)n2C
- Activity [1]: 14.9%

SMILES: CC(=O)Cn1c(S)nc2c1c(=O)[nH]c(=O)n2C
- Activity [1]: 69.4%

SMILES: Cn1c(=O)c2c(nc(S)n2C)n(C)c1=O
- Activity [1]: 16.1%
- IC50 [2]: 80.5 µM
- IC50 [6]: 0.18 µM
- IC50 [3]: > 200 µM
- IC50 [4]: 185 µM
- IC50 [5]: > 200 µM
- Ratio IC50 [7]: 500

SMILES: Cn1c(=O)[nH]c(=O)c2c1nc(S)n2CC(O)COc1ccc(Cl)cc1 (stereo unspecified)
- inhibition [8]: Active
- Ki [9]: 0.105 µM
- Papp [10]: 1.1 ×10⁻⁶ cm/s
- Papp [11]: 20.3 ×10⁻⁶ cm/s
- IC50 [2]: > 200 µM
- IC50 [3]: > 200 µM

SMILES: Cn1c(S)nc2c1c(=O)[nH]c(=O)n2C
- Activity [1]: 11.5%

SMILES: Cn1c(=O)n(Cc2ccccc2)c(=O)c2c1nc(S)n2Cc1ccccc1
- Activity [1]: 17.2%

SMILES: Cn1ccnc1Sc1nc2c(c(=O)n(C)c(=O)n2C)n1C
- Activity [1]: 100%

SMILES: COc1ccc(OC[C@@H](O)Cn2c(S)nc3c2c(=O)[nH]c(=O)n3C)cc1
- Activity [1]: 18.5%

SMILES: Cn1c(=O)c2c(ncn2C)n(C)c1=O
- Activity [1]: 74.3%

SMILES: CCn1c(S)nc2c1c(=O)[nH]c(=O)n2C
- Activity [1]: 13.8%

SMILES: Cn1c(=O)[nH]c(=O)c2c1nc(S)n2C[C@H](O)CO
- Activity [1]: 85.4%

SMILES: Cc1ncc2c(=O)[nH]c(=O)n(C)c2n1
- Activity [1]: 91.9%

SMILES: Cc1ccc(Cn2c(S)nc3c2c(=O)n(C)c(=O)n3C)cc1
- Activity [1]: 17.2%

SMILES: CSc1nc2c(c(=O)n(C)c(=O)n2C)n1C
- Activity [1]: 70.5%

SMILES: CCn1c(=O)c2c(nc(S)n2C)n(C)c1=O
- IC50 [2]: 162 µM
- IC50 [3]: > 200 µM
- IC50 [4]: > 200 µM
- IC50 [5]: > 200 µM
- Activity [12]: Non-Toxic
- Activity [13]: Non-Toxic
- Activity [14]: Dose-dependent effect
- Activity [15]: Dose-dependent effect
- inhibition at 2 µM [16]: 75%
- inhibition at 2 µM [17]: 75%
- inhibition (INH) [18]: 25%
- inhibition (INH) [19]: 40%
- Activity [20]: inactive
- Activity [21]: inactive
- Activity [22]: 33%
- Activity [23]: 17%
- Activity [24]: Active
- Activity [25]: Non-Toxic
- Activity [26]: Non-Toxic
- Activity [27]: Non-Toxic
- Activity [28]: Non-Toxic
- Activity [29]: Non-Toxic
- Activity [30]: Toxic
- Activity [31]: Non-Toxic
- inhibition [32]: inactive
- Activity [33]: Active

SMILES: CCCCn1c(S)nc2c1c(=O)[nH]c(=O)n2C
- Activity [1]: 14.8%

SMILES: CC(C)n1c(S)nc2c1c(=O)n(C)c(=O)n2C
- Activity [1]: 17.8%
